These results are taken from US4206215A, “Antimicrobial bis-[4-(substituted-amino)-1-pyridinium]alkanes” (Sterling Drug Inc., priority 1977, dated 1980).

Some results are limits rather than exact numbers.

Assay [1] concerns Ps. aerug. MGH-2. As to the kind of experiment: In vitro antibacterial activity, MIC (modified Autotiter method). The class given is cell-based, Pseudomonas aeruginosa. Particulars: 18-20 hours at 37° C.; for MIC: Pseudomonas aeruginosa, 20 h, read-out: MIC Ps. aerug. MGH-2. As for the experimental part:
(§1) The antibacterial and antifungal activity of representative examples of the compounds of Formula I was determined using a modification of the Autotiter method described by Goss, et al. Applied Microbiology 16 (9) 1,414-1,416 (1968) in which a 1,000 mcg./ml. solution of the test compound is prepared. To the first cup of the Autotray is added 0.1 ml. of the test solution. Activation of the Autotiter initiates a sequence of operations by which 0.05 ml. of the test compound solution is withdrawn from the cup by a Microtiter transfer loop and diluted in 0.05 ml. of sterile water. Following this operation, 0.05 ml. of inoculated double-strength semisynthetic medium (glucose) is added automatically to each cup. The overall operation results in final drug concentrations ranging from 500 to 0.06 mcg./ml. in twofold decrements. […] The compounds were thus tested as solutions against a variety of gram positive and gram negative bacteria including Staphylococcus aureus, Proteus mirabilis, Escherichia coli, Klebsiella pneumoniae, Pseudomonas aeruginosa, Streptococcus pyogenes, and against such fungi as Aspergillus niger, Candida albicans and Trichophyton mentagrophytes.

The test system of assay [2] is C. albicans Wisc. As to the kind of experiment: In vitro antifungal activity, MIC (modified Autotiter method). The class given is cell-based, Candida albicans. To be noted: 18-20 hours at 37° C.; for MIC: Candida albicans, 20 h, read-out: MIC C. albicans Wisc. As for the experimental part: as §1
The subject of assay [3] is C. albicans 10231. The description is as above. The class given is cell-based, Candida albicans. Particulars: 18-20 hours at 37° C.; for MIC: Candida albicans, 10231, 20 h, read-out: MIC C. albicans 10231. As for the experimental part:
as §1

Assay [4] concerns K. pneum. 39645. As to the kind of experiment: In vitro antibacterial activity, MIC (modified Autotiter method). The class given is cell-based, Klebsiella pneumoniae. To be noted: 18-20 hours at 37° C.; for MIC: Klebsiella pneumoniae, 20 h, read-out: MIC K. pneum. 39645. As for the experimental part:
as §1

Assay [5] concerns E. coli AB1932-1. The description is as above. The class given is cell-based, Escherichia coli. To be noted: 18-20 hours at 37° C.; for MIC: Escherichia coli, AB19321, 20 h, read-out: MIC E. coli AB1932-1. As for the experimental part:
as §1

The subject of assay [6] is E. coli Vogel. The assay is described as above. The class given is cell-based, Escherichia coli. To be noted: 18-20 hours at 37° C.; for MIC: Escherichia coli, 20 h, read-out: MIC E. coli Vogel. As for the experimental part:
as §1

For assay [7], the system named is E. coli 100/B22. Described as above. The class given is cell-based, Escherichia coli. Particulars: 18-20 hours at 37° C.; for MIC: Escherichia coli, 100/B22, 20 h, read-out: MIC E. coli 100/B22. As for the experimental part: as §1
Assay [8] concerns S. pyogen. C203. The assay is described as above. To be noted: 18-20 hours at 37° C.; for MIC: Streptococcus pyogenes, 20 h, read-out: MIC S. pyogen. C203. The class given is cell-based, Streptococcus pyogenes. As for the experimental part:
as §1

For assay [9], the system named is A. niger 16404. Put plainly: In vitro antifungal activity, MIC (modified Autotiter method). In kind it is cell-based, Aspergillus niger. To be noted: 18-20 hours at 37° C.; for MIC: Aspergillus niger, 16404, 20 h, read-out: MIC A. niger 16404. As for the experimental part: as §1
Assay [10] deals with P. mirab. MGH-1. As to the kind of experiment: In vitro antibacterial activity, MIC (modified Autotiter method). The class given is cell-based, Proteus mirabilis. Particulars: 18-20 hours at 37° C.; for MIC: Proteus mirabilis, 20 h, read-out: MIC P. mirab. MGH-1. As for the experimental part:
as §1

Assay [11] concerns S. Aureus Smith. The assay is described as above. The class given is cell-based, Staphylococcus aureus. To be noted: 18-20 hours at 37° C.; for MIC: Staphylococcus aureus, 20 h, read-out: MIC S. Aureus Smith. As for the experimental part: as §1
For assay [12], the system named is T. menta. 9129. Put plainly: In vitro antifungal activity, MIC (modified Autotiter method). In kind it is cell-based, Trichophyton mentagrophytes. Particulars: 18-20 hours at 37° C.; for MIC: Trichophyton mentagrophytes, 20 h, read-out: MIC T. menta. 9129. As for the experimental part: as §1

`CCCCCCCNc1cc[n+](CCCCCC[n+]2ccc(NCCCCCCC)cc2)cc1` [Example 62C, 1,6-bis-[4-(heptylamino)-1-pyridinium]hexane dichloride]: in assay [1], the “MIC Ps. aerug. MGH-2” value was above 62.5 µg/mL. Besides, the “MIC C. albicans Wisc.” value in assay [2] came out at 3.9 µg/mL. For the same molecule, the “MIC C. albicans 10231” value in [3] was determined as 3.9 µg/mL. Moreover, the “MIC K. pneum. 39645” value in [4] was 3.9 µg/mL. The “MIC E. coli AB1932-1” value in [5] was determined as 1.95 µg/mL. The “MIC E. coli Vogel” value in assay [6] was 3.9 µg/mL. Also, the “MIC E. coli 100/B22” value in assay [7] came out at 1.95 µg/mL. The “MIC S. pyogen. C203” value in assay [8] came to 0.98 µg/mL. In addition, in assay [9], the “MIC A. niger 16404” value amounted to 7.8 µg/mL. Also, in assay [10], the “MIC P. mirab. MGH-1” value was above 125 µg/mL. The “MIC S. Aureus Smith” value in assay [11] is 0.24 µg/mL. Besides, in assay [12], the “MIC T. menta. 9129” value is 3.9 µg/mL.
In the case of `CCCCCCCCCCNc1cc[n+](CCCCCC[n+]2ccc(NCCCCCCCCCC)cc2)cc1` [Example 64B, 1,6-bis-[4-(decylamino)-1-pyridinium]hexane dibromide], the MIC in assay [1] is 7.8 µg/mL; in [2] it was 3.9 µg/mL; in assay [3], 1.95 µg/mL; in [4], 3.9 µg/mL; in assay [5], 1.95 µg/mL; in assay [6] it was 1.95 µg/mL. Besides, the MIC in assay [7] came out at 7.8 µg/mL; in [8], 1 µg/mL; in [9], 7.8 µg/mL; in [10] it was 1.95 µg/mL; in assay [11] it was 1 µg/mL; in assay [12], 1 µg/mL.
On to `CCCCCCCCCCNc1cc[n+](CCCCCCC[n+]2ccc(NCCCCCCCCCC)cc2)cc1` [Example 65, 1,7-bis-[4-(decylamino)-1-pyridinium]heptane dibromide], for which the MIC in [1] came to 7.8 µg/mL; in assay [2], 15.6 µg/mL; in assay [3], 15.6 µg/mL; in assay [4] it was 7.8 µg/mL; in assay [5] it was 3.9 µg/mL; in assay [6], 3.9 µg/mL. Further, the MIC came to 3.9 µg/mL in assay [7]; 1 µg/mL in assay [8]; 7.8 µg/mL in assay [9]; 3.9 µg/mL in [10]; 1 µg/mL in assay [11]; 1.95 µg/mL in [12].
In the case of `CCCCCCCCCCNc1cc[n+](CCCCCCCC[n+]2ccc(NCCCCCCCCCC)cc2)cc1` [Example 66, 1,8-bis-[4-(decylamino)-1-pyridinium]octane dibromide], the MIC in assay [1] is 7.8 µg/mL; in assay [2] it was 15.6 µg/mL; in [3], 7.8 µg/mL; in [4], 3.9 µg/mL; in assay [5] it was 7.8 µg/mL; in [6] it was 1.95 µg/mL. Also, the MIC in assay [7] came to 3.9 µg/mL; in [8], 1.95 µg/mL; in assay [9], 15.6 µg/mL; in assay [10], 7.8 µg/mL; in assay [11], 1 µg/mL; in assay [12], 1.95 µg/mL.
For the molecule `CCCCCCCCCCNc1cc[n+](CCCCCCCCC[n+]2ccc(NCCCCCCCCCC)cc2)cc1` [Example 67, 1,9-bis-[4-(decylamino)-1-pyridinium]nonane dibromide], the MIC in assay [1] was determined as 7.8 µg/mL; in assay [2], 15.6 µg/mL; in [3] it was 31.3 µg/mL; in assay [4], 15.6 µg/mL; in [5], 7.8 µg/mL; in assay [6], 1.95 µg/mL. The MIC is 3.9 µg/mL in assay [7]; 1.95 µg/mL in [8]; 31.3 µg/mL in [9]; 7.8 µg/mL in [10]; 1 µg/mL in assay [11]; 3.9 µg/mL in assay [12].
As to `CCCCCCCCCCNc1cc[n+](CCCCCCCCCC[n+]2ccc(NCCCCCCCCCC)cc2)cc1` [Example 68, 1,10-bis-[4-(decylamino)-1-pyridinium]decane dibromide], the MIC in assay [1] was 15.6 µg/mL; in assay [2], 15.6 µg/mL; in assay [3], 15.6 µg/mL; in assay [4], 31.3 µg/mL; in [5], 15.6 µg/mL; in assay [6], 7.8 µg/mL. For the same molecule, the MIC in [7] was found to be 15.6 µg/mL; in [8], 3.9 µg/mL; in assay [9], 15.6 µg/mL; in assay [10], 7.8 µg/mL; in assay [11], 1.95 µg/mL; in assay [12], 3.9 µg/mL.
For `CCCCCCCCCCNc1cc[n+](CCCCCCCCCCCC[n+]2ccc(NCCCCCCCCCC)cc2)cc1` [Example 69, 1,12-bis-[4-(decylamino)-1-pyridinium]dodecane dibromide], the MIC in [1] was 15.6 µg/mL; in assay [2], 15.6 µg/mL; in assay [3], 15.6 µg/mL; in assay [4], 31.3 µg/mL; in assay [5], 31.3 µg/mL; in assay [6] it was 7.8 µg/mL. For the same molecule, the MIC in [7] was 15.6 µg/mL; in assay [8], 3.9 µg/mL; in assay [9], 15.6 µg/mL; in [10], 15.6 µg/mL; in [11] it was 1.95 µg/mL; in [12], 3.9 µg/mL.
As to `CCCCCCCCCCCCNc1cc[n+](CCCCCC[n+]2ccc(NCCCCCCCCCCCC)cc2)cc1` [Example 70, 1,6-bis-[4-(dodecylamino)-1-pyridinium]hexane dibromide], the MIC was above 62.5 µg/mL in [1]; 31.3 µg/mL in assay [2]; 15.6 µg/mL in [3]; above 62.5 µg/mL in assay [4]; above 62.5 µg/mL in [5]; 31.3 µg/mL in [6]. Also, the MIC in [7] is 62.5 µg/mL; in [8] it was 7.8 µg/mL; in assay [9], 62.5 µg/mL; in assay [10] it was above 62.5 µg/mL; in assay [11], 7.8 µg/mL; in assay [12] it was 7.8 µg/mL.
In the case of `CCCCCCCCCCCCNc1cc[n+](CCCCCCC[n+]2ccc(NCCCCCCCCCCCC)cc2)cc1` [Example 71, 1,7-bis-[4-(dodecylamino)-1-pyridinium]heptane dibromide], the MIC in [1] is 62.5 µg/mL; in assay [2] it was 62.5 µg/mL; in [3] it was 62.5 µg/mL; in [4], above 62.5 µg/mL; in [5], 62.5 µg/mL; in assay [6] it was 62.5 µg/mL. The MIC in assay [7] turned out to be 62.5 µg/mL; in [8] it was 7.8 µg/mL; in assay [9], 62.5 µg/mL; in assay [10], 62.5 µg/mL; in assay [11], 3.9 µg/mL; in assay [12], 7.8 µg/mL.
For `CCCCCCCCCCCCNc1cc[n+](CCCCCCCC[n+]2ccc(NCCCCCCCCCCCC)cc2)cc1` [Example 72, 1,8-bis-[4-(dodecylamino)-1-pyridinium]octane dibromide], the MIC was above 62.5 µg/mL in [1]; 31.3 µg/mL in assay [2]; 31.3 µg/mL in assay [3]; above 62.5 µg/mL in assay [4]; 62.5 µg/mL in [5]; 31.3 µg/mL in assay [6]. Further, the MIC in assay [7] was above 62.5 µg/mL; in assay [8] it was 15.6 µg/mL; in [9], above 62.5 µg/mL; in assay [10], 62.5 µg/mL; in assay [11], 7.8 µg/mL; in [12] it was 7.8 µg/mL.
For the molecule `CCCCCCCCCCCCNc1cc[n+](CCCCCCCCC[n+]2ccc(NCCCCCCCCCCCC)cc2)cc1` [Example 73, 1,9-bis-[4-(dodecylamino)-1-pyridinium]nonane dibromide], the MIC in assay [1] is above 62.5 µg/mL; in assay [2], 31.3 µg/mL; in [3] it was above 62.5 µg/mL; in [4], above 62.5 µg/mL; in assay [5], above 62.5 µg/mL; in [6], 62.5 µg/mL. The MIC in assay [7] is 62.5 µg/mL; in [8], 15.6 µg/mL; in [9], above 62.5 µg/mL; in assay [10] it was 62.5 µg/mL; in assay [11], 7.8 µg/mL; in [12] it was 7.8 µg/mL.
